The supplement of paper PMC10307832

How the values were obtained:
Assay in all cases: relative viability (nuclei count vs DMSO), 5 days (fraction); higher = more cells survive
Metformin + Trametinib = compound: CN(C)C(=N)NC(=N)N [Metformin] + CC(=O)Nc1cccc(-n2c(=O)n(C3CC3)c(=O)c3c(Nc4ccc(I)cc4F)n(C)c(=O)c(C)c32)c1 [Trametinib] (partner 0.02 µM)
Outline: (§1)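 Values are medians from duplicate plates. Each reflects relative viability, defined as the nuclei count of treated wells over that of vehicle wells. Lung cancer cell lines in 1536-well plates were pin-tool dosed one day after seeding with one drug alone or with a fixed anchor-drug dose plus five library-drug doses (not always all listed) in √10 steps, then fixed, stained and imaged at 4× after 5 days.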

Apatinib + Dasatinib = compound: N#CC1(c2ccc(NC(=O)c3cccnc3NCc3ccncc3)cc2)CCCC1 [Apatinib] + Cc1nc(Nc2ncc(C(=O)Nc3c(C)cccc3Cl)s2)cc(N2CCN(CCO)CC2)n1 [Dasatinib] (partner 0.075 µM)
Outline: as §1

Metformin + Crizotinib = compound: CN(C)C(=N)NC(=N)N [Metformin] + C[C@@H](Oc1cc(-c2cnn(C3CCNCC3)c2)cnc1N)c1c(Cl)ccc(F)c1Cl [Crizotinib] (partner 1 µM)
Outline: as §1

Apatinib + AZD7762 = compound: N#CC1(c2ccc(NC(=O)c3cccnc3NCc3ccncc3)cc2)CCCC1 [Apatinib] + NC(=O)Nc1cc(-c2cccc(F)c2)sc1C(=O)N[C@H]1CCCNC1 [AZD7762] (partner 0.2 µM)
Outline: as §1

NCI-H460 gave a relative viability (Metformin + Trametinib; first compound 31.62 µM) of 0.122, a relative viability (Metformin + Trametinib; first compound 100 µM) of 0.136 and a relative viability (Metformin + Trametinib; first compound 316.23 µM) of 0.133. For the same cell line, the relative viability (Metformin + Trametinib; first compound 1000 µM) was 0.253, the relative viability (Apatinib + Dasatinib; first compound 0.08 µM) was 0.468 and the relative viability (Apatinib + Dasatinib; first compound 0.253 µM) was 0.477. For the same cell line, the relative viability (Apatinib + Dasatinib; first compound 0.8 µM) was 0.426, the relative viability (Apatinib + Dasatinib; first compound 2.53 µM) was 0.487 and the relative viability (Apatinib + Dasatinib; first compound 8 µM) was 0.413. The relative viability (Metformin + Crizotinib; first compound 31.62 µM) was 0.734, the relative viability (Metformin + Crizotinib; first compound 100 µM) was 0.778 and the relative viability (Metformin + Crizotinib; first compound 316.23 µM) was 0.829. It also gave a relative viability (Metformin + Crizotinib; first compound 1000 µM) of 0.916, a relative viability (Apatinib + AZD7762; first compound 0.08 µM) of 0.538 and a relative viability (Apatinib + AZD7762; first compound 0.253 µM) of 0.581. The relative viability (Apatinib + AZD7762; first compound 0.8 µM) was 0.417, the relative viability (Apatinib + AZD7762; first compound 2.53 µM) was 0.269 and the relative viability (Apatinib + AZD7762; first compound 8 µM) was 0.394.
